Laboratory results taken from ChEMBL document CHEMBL1201862, “PubChem BioAssay data set” (2004).
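Exposure lasted 48 hours, with cells grown in 96-well plates and compounds tested at five concentrations. Here, GI50 denotes the concentration required for 50% inhibition of growth.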 Active and inactive are the calls of the source. Rule as the data show it: active = GI50 up to about 1.1 µM and inactive = higher.

Legend:
Experiment in all cases: inhibition of tumour cell growth, NCI panel, 48 h
A549 = test system: A549
ACHN = test system: ACHN
EKVX = test system: EKVX
HCT-15 = test system: HCT-15
HT-29 = test system: HT-29
M14 = test system: M14
MDA-MB-231 = test system: MDA-MB-231
MDA-MB-435 = test system: MDA-MB-435
NCI-H460 = test system: NCI-H460
NCI/ADR-RES = test system: NCI/ADR-RES
OVCAR-4 = test system: OVCAR-4
RPMI-8226 = test system: RPMI-8226
RXF 393 = test system: RXF 393
SF-268 = test system: SF-268
SK-MEL-5 = test system: SK-MEL-5
T47D = test system: T47D
TK-10 = test system: TK-10
U-251 = test system: U-251
UACC-62 = test system: UACC-62
UO-31 = test system: UO-31

Row | SMILES | GI50 (A549) | GI50 (ACHN) | GI50 (EKVX) | GI50 (HCT-15) | GI50 (HT-29) | GI50 (M14) | GI50 (MDA-MB-231) | GI50 (MDA-MB-435) | GI50 (NCI-H460) | GI50 (NCI/ADR-RES) | GI50 (OVCAR-4) | GI50 (RPMI-8226) | GI50 (RXF 393) | GI50 (SF-268) | GI50 (SK-MEL-5) | GI50 (T47D) | GI50 (TK-10) | GI50 (U-251) | GI50 (UACC-62) | GI50 (UO-31)
1 | CSc1nc(O)c(C#N)c(-c2ccccc2)n1 | > 100 µM (inactive) | > 100 µM (inactive) | > 100 µM (inactive) | > 100 µM | > 100 µM (inactive) | > 100 µM (inactive) | > 100 µM (inactive) | > 100 µM (inactive) | > 100 µM (inactive) | > 100 µM (inactive) | > 100 µM (inactive) | > 100 µM (inactive) | > 100 µM (inactive) | > 100 µM (inactive) | > 100 µM (inactive) | 64.9 µM (inactive) | > 100 µM (inactive) | > 100 µM (inactive) | > 100 µM (inactive) | 78.3 µM (inactive)
2 | Cc1cc(N)ccc1/N=N\c1ccc(S(=O)(=O)CCOS(=O)(=O)O)cc1 | 3.78 µM (inactive) | 3.24 µM (inactive) | 27 µM (inactive) | 0.346 µM | 0.767 µM (active) | 0.513 µM (active) | 0.215 µM (active) | 0.216 µM (active) | 3.44 µM (inactive) | 0.41 µM (active) | 10.5 µM (inactive) | 1 µM (active) | 10.8 µM (inactive) | 6.11 µM (inactive) | 0.287 µM (active) | 12.2 µM (inactive) | 14 µM (inactive) | 3.05 µM (inactive) | 1.57 µM (inactive) | 2 µM (inactive)
3 | COC(=O)c1c(C)ccc2c(O)c3c(cc12)C(=O)c1c2c(cc(O)c1C3=O)C1(C)OC(C)(O2)C(O)C(N(C)C)C1O (stereo not given) | 1.28 µM (inactive) | 1.23 µM (inactive) | 2.37 µM (inactive) | 1.46 µM | 0.577 µM (active) | 1.85 µM (inactive) | 1.38 µM (inactive) | 1.62 µM (inactive) | 0.681 µM (active) | 2.79 µM (inactive) | 2.12 µM (inactive) | 0.946 µM (active) | 1.22 µM (inactive) | 1.05 µM (active) | 8.38 µM (inactive) | 2.76 µM (inactive) | 1.4 µM (inactive) | 0.667 µM (active) | 1.66 µM (inactive) | 1.87 µM (inactive)
4 | C=C=C(CC1CCCCC1=O)S(=O)(=O)c1ccccc1 (stereo not given) | > 10 µM (inactive) | > 10 µM (inactive) | > 10 µM (inactive) | 4.52 µM | > 10 µM (inactive) | 3.12 µM (inactive) | > 10 µM (inactive) | > 7.23 µM (inactive) | > 10 µM (inactive) | > 10 µM (inactive) | > 10 µM (inactive) | 1.04 µM (active) | > 9.62 µM (inactive) | > 10 µM (inactive) | > 4.8 µM (inactive) | > 10 µM (inactive) | > 10 µM (inactive) | > 10 µM (inactive) | > 5.12 µM (inactive) | > 10 µM (inactive)
5 | CCCCN1C(=O)C[C@H]2[C@@H]3CCc4cc(OCCN5CCCC5)ccc4[C@H]3CC[C@]2(C)C1=O | 7.8 µM (inactive) | 12.9 µM (inactive) | 14.5 µM (inactive) | 6 µM | 0.979 µM (active) | 2.03 µM (inactive) | 4.71 µM (inactive) | 6.31 µM (inactive) | 5.79 µM (inactive) | 14.7 µM (inactive) | 14.1 µM (inactive) | 2.96 µM (inactive) | 1.89 µM (inactive) | 12.9 µM (inactive) | 5.94 µM (inactive) | 12.3 µM (inactive) | 14.6 µM (inactive) | 5.51 µM (inactive) | 3.72 µM (inactive) | 4.6 µM (inactive)
